Results published in ChEMBL document CHEMBL1212917, “Substituted E-3-(3-indolylmethylene)-1,3-dihydroindol-2-ones with antitumor activity. In depth study of the effect on growth of breast cancer cells” (2010).
Structures can show the parent of a compound that is named as a salt.

Assays:
Format in all cases: functional
[1] = Growth inhibition of human Ovarian cancer cells after 48 hrs; settings: Cancer cell lines; for CC50: read-out: LC50 (the source's name)
[2] = Growth inhibition of human breast cancer cells after 48 hrs; settings: Cancer cell lines; for CC50: read-out: LC50 (the source's name)
NSCLC = assay: Growth inhibition of human NSCLC cells after 48 hrs
[3] = Growth inhibition of human melanoma cells after 48 hrs; settings: Melanoma cell; for CC50: read-out: LC50 (the source's name)
[4] = Growth inhibition of human CNS cancer cells after 48 hrs; settings: Cancer cell lines; for CC50: read-out: LC50 (the source's name)
[5] = Growth inhibition of human prostate cancer cells after 48 hrs; settings: Cancer cell lines; for CC50: read-out: LC50 (the source's name)
[6] = Growth inhibition of human colon cancer cells after 48 hrs; settings: Cancer cell lines; for CC50: read-out: LC50 (the source's name)
[7] = Growth inhibition of human leukemia cells after 48 hrs; settings: Leukemia cell; for CC50: read-out: LC50 (the source's name)
[8] = Growth inhibition of human renal cancer cells after 48 hrs; settings: Cancer cell lines; for CC50: read-out: LC50 (the source's name)

Row | Compound | GI50 [1] | CC50 [1] | GI50 [2] | CC50 [2] | GI50 (NSCLC) | LC50 (NSCLC) | GI50 [3] | CC50 [3] | GI50 [4] | CC50 [4] | GI50 [5] | CC50 [5] | GI50 [6] | CC50 [6] | GI50 [7] | CC50 [7] | GI50 [8] | CC50 [8] | TGI [1] | TGI [2] | other results
1 | COc1cc2c(/C=C3/C(=O)Nc4cc(Cl)ccc43)c(Cl)[nH]c2cc1C | 0.28 µM | 49 µM | 0.15 µM | 39.8 µM | 0.43 µM | 52.5 µM | 0.23 µM | 35.5 µM | 0.12 µM | 41.7 µM | 0.22 µM | 41.7 µM | 0.17 µM | 25.7 µM | 0.14 µM | 58.9 µM | 0.23 µM | 46.8 µM |  |  | 
2 | COc1cc2c(/C=C3/C(=O)Nc4ccccc43)c[nH]c2cc1C |  |  | 0.12 µM |  |  |  |  |  |  | 53.7 µM |  |  |  |  | 0.09 µM |  |  |  |  |  | 
3 | COc1cc2c(cc1C)NC(=O)/C2=C/c1c(Cl)n(C)c2cc(C)c(OC)cc12 | 30.2 µM |  | 18.6 µM | 95.5 µM | 34.7 µM |  | 15.1 µM | 57.5 µM | 26.9 µM |  | 22.4 µM |  | 22.9 µM |  | 18.2 µM | 97.7 µM | 41.7 µM |  |  |  | 
4 | COc1cc2c(/C=C3/C(=O)N(C)c4ccc(O)cc43)c[nH]c2cc1C | 5.62 µM | 95.5 µM | 2.75 µM | 63.1 µM | 6.03 µM | 91.2 µM | 3.24 µM | 66.1 µM | 3.72 µM | 67.6 µM | 3.55 µM |  | 2.95 µM |  | 3.47 µM |  | 5.89 µM | 93.3 µM | 31.6 µM | 16.2 µM | TGI (NSCLC): 21.9 µM; TGI [3]: 15.1 µM; TGI [4]: 24 µM; TGI [5]: 15.8 µM; TGI [6]: 24.6 µM; TGI [7]: 36.3 µM; TGI [8]: 28.2 µM
5 | CC[C@]1(O)C[C@H]2CN(CCc3c([nH]c4ccccc34)[C@@](C(=O)OC)(c3cc4c(cc3OC)N(C=O)[C@H]3[C@@](O)(C(=O)OC)[C@H](OC(C)=O)[C@]5(CC)C=CCN6CC[C@]43[C@@H]65)C2)C1 [VINCRISTINE SULFATE] | 0.32 µM | 316 µM | 0.32 µM | 316 µM | 0.25 µM |  | 0.16 µM | 251 µM | 0.13 µM | 200 µM | 0.13 µM | 316 µM | 0.1 µM | 79.4 µM | 0.1 µM | 631 µM | 0.32 µM | 251 µM |  |  | 
6 | COc1cc2c(/C=C3/C(=O)N(C)c4ccc(O)cc43)c(Cl)n(C)c2cc1C | 0.26 µM | 47.9 µM | 0.06 µM | 40.7 µM | 0.22 µM | 42.7 µM | 0.11 µM | 33.1 µM | 0.04 µM | 29.5 µM | 0.1 µM | 24 µM | 0.07 µM | 26.9 µM | 0.05 µM | 19.9 µM | 0.11 µM | 36.3 µM |  |  | 
7 | CN(C)c1ccc2[nH]c(Cl)c(/C=C3/C(=O)Nc4ccc(O)cc43)c2c1 | 7.24 µM |  | 2.88 µM |  | 5.13 µM | 95.5 µM | 5.25 µM | 79.4 µM | 3.8 µM |  | 8.91 µM |  | 3.89 µM | 69.2 µM | 2.24 µM |  | 5.13 µM | 91.2 µM |  |  | 
8 | CN(C)c1ccc2[nH]c(Cl)c(/C=C3/C(=O)N(C)c4ccc(O)cc43)c2c1 | 8.32 µM | 95.5 µM | 3.8 µM |  | 6.61 µM | 85.1 µM | 4.57 µM | 66.1 µM | 6.03 µM | 85.1 µM | 12.9 µM |  | 4.9 µM | 61.7 µM | 16.6 µM |  | 4.37 µM | 87.1 µM | 55 µM | 30.9 µM | TGI (NSCLC): 46.8 µM; TGI [3]: 26.3 µM; TGI [4]: 33.9 µM; TGI [6]: 20.9 µM; TGI [8]: 31.6 µM
9 | O=C1Nc2ccc(F)cc2/C1=C\c1c(Cl)[nH]c2c1ccc1ccccc12 |  |  | 0.4 µM | 70.8 µM |  |  |  |  |  | 51.3 µM |  |  |  |  |  |  |  |  |  |  | 
10 | COc1cc2c(cc1C)NC(=O)/C2=C/c1c[nH]c2ccccc12 | 12.6 µM | 97.7 µM | 11.8 µM | 91.2 µM | 13.5 µM | 89.1 µM | 13.2 µM | 81.3 µM | 10 µM | 95.5 µM | 13.8 µM | 91.2 µM | 8.13 µM | 95.5 µM | 8.71 µM |  | 11.5 µM | 85.1 µM | 45.7 µM | 40.7 µM | TGI (NSCLC): 43.6 µM; TGI [3]: 37.1 µM; TGI [4]: 33.9 µM; TGI [5]: 36.3 µM; TGI [6]: 52.5 µM; TGI [7]: 55 µM; TGI [8]: 38 µM
11 | Cc1cc2c(cc1O)/C(=C\c1c(Cl)[nH]c3c1ccc1ccccc13)C(=O)N2 | 9.12 µM | 87.1 µM | 3.72 µM | 69.2 µM | 7.94 µM |  | 6.46 µM | 57.5 µM | 8.71 µM | 67.6 µM |  | 74.1 µM | 6.61 µM | 61.7 µM | 3.31 µM |  | 8.71 µM | 75.9 µM | 46.8 µM | 19.1 µM | TGI (NSCLC): 30.2 µM; TGI [3]: 20.9 µM; TGI [4]: 24.6 µM; TGI [5]: 26.3 µM; TGI [6]: 20.9 µM; TGI [7]: 38 µM; TGI [8]: 33.1 µM
12 | COc1cc2c(/C=C3/C(=O)Nc4ccc(Br)cc43)c(Cl)n(C)c2cc1C | 3.47 µM | 43.6 µM | 0.95 µM | 31.6 µM | 1.91 µM | 37.1 µM | 1.55 µM | 31.6 µM | 0.93 µM | 38.9 µM | 1.55 µM | 26.3 µM | 1.55 µM | 29.5 µM | 2.51 µM |  | 1.7 µM | 26.9 µM |  |  | 
13 | CN(C)c1ccc2[nH]c(Cl)c(/C=C3/C(=O)Nc4ccc(Cl)cc43)c2c1 | 3.31 µM | 41.7 µM | 1.32 µM | 55 µM | 2.57 µM | 46.8 µM | 2.69 µM | 37.1 µM | 1.58 µM | 18.2 µM | 2.45 µM | 46.8 µM | 2.09 µM | 22.9 µM | 1.62 µM | 91.2 µM | 1.78 µM | 29.5 µM |  |  | 
14 | COc1ccc2[nH]cc(/C=C3/C(=O)Nc4ccccc43)c2c1 | 6.31 µM | 81.3 µM | 3.47 µM | 91.2 µM | 5.13 µM |  | 6.61 µM | 75.9 µM | 6.17 µM | 75.9 µM | 5.62 µM | 83.2 µM | 2.24 µM | 70.8 µM | 2.34 µM | 43.6 µM | 5.75 µM | 83.2 µM | 30.2 µM | 18.2 µM | TGI (NSCLC): 25.1 µM; TGI [3]: 27.5 µM; TGI [4]: 28.8 µM; TGI [5]: 24 µM; TGI [6]: 15.5 µM; TGI [7]: 7.76 µM; TGI [8]: 26.3 µM
15 | COc1cc2c(cc1C)NC(=O)/C2=C/c1c(Cl)[nH]c2c1ccc1ccccc12 |  |  |  |  |  | 47.9 µM |  |  | 0.31 µM |  |  |  |  |  |  |  |  |  |  |  | 
16 | O=C1Nc2ccc(Cl)cc2/C1=C\c1c(Cl)[nH]c2c1ccc1ccccc12 |  |  |  |  |  |  |  |  |  |  | 0.38 µM |  |  |  |  |  |  |  |  |  | 
